# What was measured:
# [1] = system: pooled human plasma; experiment: Thrombin clotting time in pooled human plasma; format: biochemical; settings: baseline 16.6 s
# [2] = system: pooled human plasma; experiment: Prothrombin time in pooled human plasma; format: biochemical; settings: 40 μM total plasma concentration; baseline 10.3 ± 0.1 s
# [3] = system: electrically mediated carotid arterial thrombosis; experiment: Rabbit ECAT model, prevention of thrombosis; format: in vivo
# [4] = target: recombinant FXIa (Macaca fascicularis, UniProt A0A2K5VVW4); experiment: biochemical
# Chain of recombinant FXIa (Macaca fascicularis, UniProt A0A2K5VVW4) (A0A2K5VVW4 388-625): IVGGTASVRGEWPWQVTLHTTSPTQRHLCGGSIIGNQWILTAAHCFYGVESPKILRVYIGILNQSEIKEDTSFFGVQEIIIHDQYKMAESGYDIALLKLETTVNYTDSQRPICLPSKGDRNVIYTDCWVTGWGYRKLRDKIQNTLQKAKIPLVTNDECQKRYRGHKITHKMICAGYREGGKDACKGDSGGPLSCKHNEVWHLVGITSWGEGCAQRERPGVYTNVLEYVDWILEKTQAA
# [5] = system: cynomolgus monkey plasma; experiment: In vitro PT in cynomolgus monkey plasma; format: biochemical; settings: 40 μM, reagent not given
# [6] = system: cynomolgus monkey plasma; experiment: Ecarin clotting time in cynomolgus monkey plasma; format: biochemical; settings: 40 μM
# [7] = target: recombinant FXIa (Canis lupus familiaris, UniProt A0A8I3NYS2); settings: dog recombinant FXIa
# Chain of recombinant FXIa (Canis lupus familiaris, UniProt A0A8I3NYS2) (A0A8I3NYS2 389-626): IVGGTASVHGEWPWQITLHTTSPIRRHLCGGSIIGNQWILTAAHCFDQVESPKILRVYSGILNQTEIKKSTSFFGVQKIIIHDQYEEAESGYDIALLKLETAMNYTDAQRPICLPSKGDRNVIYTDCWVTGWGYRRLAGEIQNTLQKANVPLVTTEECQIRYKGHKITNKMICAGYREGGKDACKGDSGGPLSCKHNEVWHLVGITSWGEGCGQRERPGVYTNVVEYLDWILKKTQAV
# [8] = Ex vivo coagulation assays; format: in vivo, rabbit
# [9] = target: recombinant FXIa (Rattus norvegicus, UniProt F7F105)
# Chain of recombinant FXIa (Rattus norvegicus, UniProt F7F105) (F7F105 400-556): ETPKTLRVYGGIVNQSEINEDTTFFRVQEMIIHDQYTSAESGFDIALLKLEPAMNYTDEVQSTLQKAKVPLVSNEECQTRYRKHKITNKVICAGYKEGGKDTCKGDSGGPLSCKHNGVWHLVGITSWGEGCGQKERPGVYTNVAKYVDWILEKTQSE
# [10] = system: rabbit platelet-rich plasma; experiment: In vitro platelet aggregation in hirudin-treated rabbit platelet-rich plasma; format: cell-based; settings: for peak platelet aggregation response to ADP (10 µM): control 59 ± 1%; for peak platelet aggregation response to ADP (10 µM) / peak platelet aggregation response to collagen (10 µg/ml) / peak platelet aggregation response to arachidonic acid (250 µM): n = 4; for peak platelet aggregation response to collagen (10 µg/ml): control 66 ± 1%; for peak platelet aggregation response to arachidonic acid (250 µM): control 67 ± 1%
# [11] = Pharmacokinetics in rabbits; settings: rabbit, in vivo
# [12] = target: recombinant FXIa (Oryctolagus cuniculus, UniProt G1SSQ6); experiment: biochemical
# Chain of recombinant FXIa (Oryctolagus cuniculus, UniProt G1SSQ6) (G1SSQ6 387-624): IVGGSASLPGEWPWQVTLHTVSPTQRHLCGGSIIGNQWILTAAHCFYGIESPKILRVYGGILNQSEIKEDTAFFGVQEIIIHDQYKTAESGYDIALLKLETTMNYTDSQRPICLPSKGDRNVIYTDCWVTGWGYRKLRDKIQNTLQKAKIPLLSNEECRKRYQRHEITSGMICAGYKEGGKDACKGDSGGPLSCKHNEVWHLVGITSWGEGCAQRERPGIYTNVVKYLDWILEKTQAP
# [13] = system: rabbit platelet-rich plasma; settings: 3µM; cited from earlier work
# [14] = ECAT rabbits, 120 min after start of infusion
compound,measurement,setting,value
C[C@@H]1CCC[C@H](n2cnc(-c3cc(Cl)ccc3-n3cc(Cl)nn3)cc2=O)c2cc(ccn2)-c2c(cnn2C(F)F)NC1=O [milvexian],TT,[1]; 20 μM total plasma concentration,24.8 s
same,TT,[1]; 40 μM total plasma concentration,28.4 s
same,PT,[2],12.9 ± 0.4 s
same,reduction of thrombus weight,"[3]; 0.063 + 0.04 mg/kg+mg/kg/h IV, n = 6",15 ± 10%
same,20% maximal effective concentration (antithrombotic),"[3]; total plasma concentration, 95% CI 23–128",55 nM
same,Ki,[4],150 ± 10 pM
same,PT increase over baseline,[5],approximately 2 ×
same,ecarin clotting time increase over baseline,[6],1.9 ×
same,Ki,[7],640 ± 30 pM
same,ex vivo PT,[8]; [14],did not alter
same,ex vivo TT,[8]; [14],did not alter
same,ex vivo APTT,"[8]; ECAT rabbits, highest two doses, 120 min after start of infusion",elevated APTT significantly
same,prolongation of ex vivo APTT needed to achieve 50% thrombus weight reduction,[8]; rabbit ECAT,1.6 fold
same,Ki,[9],490000 ± 40000 pM
same,peak platelet aggregation response to ADP (10 µM),[10]; milvexian 1 μM,58 ± 2%
same,peak platelet aggregation response to collagen (10 µg/ml),[10]; milvexian 1 μM,67 ± 2%
same,peak platelet aggregation response to arachidonic acid (250 µM),[10]; milvexian 1 μM,65 ± 1%
same,peak platelet aggregation response to ADP (10 µM),[10]; milvexian 10 μM,55 ± 2%
same,peak platelet aggregation response to collagen (10 µg/ml),[10]; milvexian 10 μM,69 ± 1%
same,peak platelet aggregation response to arachidonic acid (250 µM),[10]; milvexian 10 μM,66 ± 2%
same,"platelet aggregation to ADP, arachidonic acid, or collagen",[10]; result in words,did not alter
same,concentration at 10 min,"[11]; male, iv, 0.8 mg/kg",2000 nM
same,concentration at 8 h,"[11]; male, iv, 0.8 mg/kg",100 nM
same,concentration at 1 h,"[11]; po, 20 mg/kg",2000 nM
same,concentration at 24 h,"[11]; po, 20 mg/kg",40 nM
same,Ki,[12],380 ± 10 pM
Cc1noc(C)c1S(=O)(=O)N[C@@H](CNC(=O)C[C@H]1CC(c2ccc(C(=N)N)cc2)=NO1)C(=O)O [DMP802],"platelet aggregation responses to ADP, arachidonic acid, and collagen",[13],almost completely inhibited
